The values that follow come from ChEMBL document CHEMBL5620395, “Development and therapeutic potential of allosteric retinoic acid receptor-related orphan receptor γt (RORγt) inverse agonists for autoimmune diseases” (Eur J Med Chem, 2023).

One assay addresses T1, Nuclear receptor ROR-gamma (Homo sapiens, UniProt P51449).
T1 sequence (P51449 whole entry): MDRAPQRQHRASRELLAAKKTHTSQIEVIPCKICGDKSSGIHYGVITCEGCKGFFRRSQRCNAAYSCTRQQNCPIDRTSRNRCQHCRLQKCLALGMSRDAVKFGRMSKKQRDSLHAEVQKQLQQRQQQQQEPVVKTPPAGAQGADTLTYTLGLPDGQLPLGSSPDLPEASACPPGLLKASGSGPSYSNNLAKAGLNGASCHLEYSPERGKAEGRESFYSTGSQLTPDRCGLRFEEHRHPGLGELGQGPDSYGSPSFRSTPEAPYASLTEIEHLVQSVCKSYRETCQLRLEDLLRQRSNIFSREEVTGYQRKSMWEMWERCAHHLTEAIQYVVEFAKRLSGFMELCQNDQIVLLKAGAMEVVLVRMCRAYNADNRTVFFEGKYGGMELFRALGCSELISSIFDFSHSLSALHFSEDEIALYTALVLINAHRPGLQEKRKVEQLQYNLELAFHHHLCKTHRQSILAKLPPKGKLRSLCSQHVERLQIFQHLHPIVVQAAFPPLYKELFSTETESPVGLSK
The experiment in a line: Inhibition of RORgamma (unknown origin) incubated for 1 hr by TR-FRET method.
Conditions: not given
For orientation: Time-resolved FRET reads energy transfer from a long-lived donor to a nearby acceptor.
The term IC50 denotes the concentration at which inhibition is half-maximal. `Cc1cc2c(s1)c(-c1ccc(C(=O)O)cc1F)nn2C(=O)c1c(F)cccc1C(F)(F)F`: the half-maximal inhibitory concentration (IC50) is < 0.05 µM.

With `Cc1cc2c(s1)c(-c1ccc(C(=O)O)cc1)nn2C(=O)c1c(C)cccc1Cl`, the IC50 was < 0.05 µM.

In the case of `CN(C)C(=O)c1cc2c(s1)c(-c1ccc(C(=O)O)cc1F)nn2C(=O)c1c(F)cccc1C(F)(F)F`, the IC50 is < 0.05 µM.

As to `Cc1cc2c(s1)c(-c1ccc(C(=O)O)cc1F)nn2C(=O)c1c(Cl)cccc1C(F)(F)F`, the IC50 was < 0.05 µM.

With `Cc1cc2c(s1)c(-c1ccc(C(=O)O)cc1F)nn2C(=O)c1c(Cl)cccc1Cl`, the IC50 was < 0.05 µM.

On to `Cc1cc2c(s1)c(-c1ccc(C(=O)O)c(F)c1)nn2C(=O)c1c(F)cccc1C(F)(F)F`, for which the IC50 is < 0.05 µM.

Consider `Cc1cc2c(s1)c(-c1ccc(C(=O)O)cc1)nn2C(=O)c1c(Cl)cccc1C(F)(F)F`, for which the concentration for half-maximal inhibition (IC50) is < 0.05 µM.

`Cc1cc2c(s1)c(-c1ccc(C(=O)O)cc1)nn2C(=O)c1c(Cl)cccc1Br`: the IC50 is < 0.05 µM.

A further assay deals with T2, Peroxisome proliferator-activated receptor gamma (Homo sapiens, UniProt P37231).
T2 sequence (P37231 whole entry): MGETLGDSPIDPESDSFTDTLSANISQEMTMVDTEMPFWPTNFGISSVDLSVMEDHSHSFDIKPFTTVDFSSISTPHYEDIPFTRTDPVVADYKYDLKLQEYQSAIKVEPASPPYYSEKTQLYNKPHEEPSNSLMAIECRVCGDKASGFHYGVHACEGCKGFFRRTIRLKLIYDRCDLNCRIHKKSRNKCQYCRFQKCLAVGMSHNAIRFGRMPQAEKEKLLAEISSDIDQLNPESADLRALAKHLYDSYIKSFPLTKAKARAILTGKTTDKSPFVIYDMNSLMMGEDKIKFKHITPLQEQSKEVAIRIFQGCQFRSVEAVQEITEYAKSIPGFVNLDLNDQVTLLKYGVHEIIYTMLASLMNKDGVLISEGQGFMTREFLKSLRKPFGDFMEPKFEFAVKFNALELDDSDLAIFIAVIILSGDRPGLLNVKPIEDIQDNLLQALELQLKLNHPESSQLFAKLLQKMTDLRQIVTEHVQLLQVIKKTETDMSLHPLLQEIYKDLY
The experiment in a line: Inverse agonist activity at human his 6 tagged PPARgammaLBD incubated for 60 mins by TR-FRET assay.
Conditions: not given
As to `C[C@H](CCC(=O)NCCOCCOCCOCCOCCOCCOCCOCCOCCOCCOCCOCCOCCOCCOCCOCCNC(=O)c1ccc2c(-c3ccc(C(=O)O)cc3)nn(C(=O)c3c(Cl)cccc3C(F)(F)F)c2c1)[C@H]1CC[C@H]2[C@@H]3CC=C4C[C@@H](O)CC[C@]4(C)[C@H]3CC[C@]12C`, the IC50 was > 100 µM.

Tested on in the next assay: not listed separately
The experiment in a line: Inhibition of IL-17a mRNA level in […] at 10 uM incubated for 24 hrs by RT-PCR analysis. The assay is classed as functional, cell-based. To be noted: el4.
`C[C@H](CCC(=O)NCCOCCOCCOCCOCCOCCOCCOCCOCCOCCOCCOCCOCCOCCOCCOCCNC(=O)c1ccc2c(-c3ccc(C(=O)O)cc3)nn(C(=O)c3c(Cl)cccc3C(F)(F)F)c2c1)[C@H]1CC[C@H]2[C@@H]3CC=C4C[C@@H](O)CC[C@]4(C)[C@H]3CC[C@]12C`: 0.11 µM corresponded to half-maximal inhibition (IC50).
